Data published in PMC10447463, “Data-mining unveils structure–property–activity correlation of viral infectivity enhancing self-assembling peptides” (Nature Communications, 2023).
Read-outs that look alike come from different tables or passages of the source.

Tests used:
[1] = type: physicochemical; conditions: STD prep
[2] = type: physicochemical; conditions: for Tht category (> 1.5 to blank = +): category 1/0
Method in brief: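 Preformed peptide fibrils (1 mg/mL) mixed with 50 µM ThT in PBS, 15 min at RT, fluorescence ex 440/em 488 nm versus PBS blank, triplicates. Zeta potential: peptides at 1 mg/mL in PBS pH 7.4, aged 1 d at RT, diluted in 1 mM KCl, Smoluchowski from electrophoretic mobility.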

[3] = ThT fluorescence relative to blank (42.1851851851852 a.u.)
[4] = relative to blank 42.1851851851852 a.u.
[5] = ThT fluorescence relative to blank, blank = 42.1851851851852

Substance	TEM: 1= fibrils, 0= aggregates (micelle), 0.5 = aggregates and fibrils, -1 = nothing obersved, STD prep [1]	Tht rel to blank (42.1851851851852) [2, 3]	Tht category (> 1.5 to blank = +) [2]	Tht rel to blank (42.1851851851852) [2, 4]	Tht rel to blank (42.1851851851852) [2, 5]
QCKAKAQANMWQ [CK22]	0.5	1.496	0 (ThT-inactive (N-Fold <2))	1.496	
KFKFQFNM [BL6a]	1	1.202	0 (ThT-inactive (N-Fold <2))	1.202	
MKIKIQINM [TM41]	1		0 (ThT-inactive (N-Fold <2))	1.327	
KIKIKIQI [TG13]	1	2.036	1 (ThT. Cat is 1, if Rel. ThT >2)		2.036
RGDCKFKFQF [TM64/ CN15]	1	6.788	1 (ThT. Cat is 1, if Rel. ThT >2)		6.788
KIKIQINM [JGB2]	1	1.587	0 (ThT-inactive (N-Fold <2))	1.587	
CEIEIQINM [TM144]	1	5.13	1 (ThT. Cat is 1, if Rel. ThT >2)	5.13	
QCKIKIQI [CK3]	1	2.039	1 (ThT. Cat is 1, if Rel. ThT >2)	2.039	
QCKFKFQF [CK9]	1	2.014	1 (ThT. Cat is 1, if Rel. ThT >2)	2.014	
CKFKFQFNMW [KB14]	1		1 (ThT. Cat is 1, if Rel. ThT >2)	6.314	
CKIKIQINMW [TM86]	1	1.353	0 (ThT-inactive (N-Fold <2))	1.353	
CRFRFQF [CN10]	1		1 (ThT. Cat is 1, if Rel. ThT >2)	3.455	
CKYKYQY [KB2]	0		1 (ThT. Cat is 1, if Rel. ThT >2)	3.119	
CSISIQI [TM141]	1		1 (ThT. Cat is 1, if Rel. ThT >2)	15.04	
KAKAQA [JJA2 / TM153]	0	1.172	0 (ThT-inactive (N-Fold <2))	1.172	
KLKLQLL [TG4 / (KM2)]	1	0.8415	0 (ThT-inactive (N-Fold <2))		0.8415
